Oligonucleotides are written 5' to 3', each unit as a sugar letter and its base; * is a phosphorothioate linkage, no mark a phosphodiester; rarer units and linkages stand in square brackets, end groups in braces. Plain capitals give the bases only. e = 2'-O-(2-methoxyethyl) (MOE); [5mC] = 5-methylcytosine; d = 2'-deoxy (DNA)
System: GRN mRNA
Experiment: GRN mRNA qPCR in SK-N-AS cells transfected with ASOs
Format: cell-based, human
Settings: SK-N-AS; for hGRN mRNA FC / 120 nM FC (GRN mRNA): 120 nM
Procedure: The best ASOs based on increased GRN mRNA fold-change were selected for further characterization in dose titration studies. Briefly, human neuroblastoma SK-N-AS cells were transfected with 20 to 160 nM of ASOs CO-3423, CO-3431, CO-3463, and CO-3503. A steric non-targeting control ASO (sNTC) was used as a control. Cells were collected for mRNA analysis after 48 hours and GRN mRNA quantified by qPCR. Housekeeping genes for normalization were GAPDH and PPIA, and mRNA fold change (FC) was normalized to sNTC.
36 additional ASOs were designed with different modifications and base walking around selected ASOs. The effect of increasing doses of these ASOs was assessed in the human neuroblastoma cell line SK-N-AS following transfection. Relative GRN mRNA levels in SK-N-AS cells after treatment was assessed 48-hours post-transfection, and data from exemplary ASOs is shown in FIGS. 5A and 5B.
Additional chemical modifications, including LNA, modifications were made to CO-3423. SK-N-AS cells were transfected with increasing concentrations of the LNA/PS modified ASOs and GRN mRNA quantified by qPCR. ASOs including different LNA modifications of CO-3423 had similar efficacy (i.e, similar increased GRN mRNA expression). GRN mRNA was normalized to the average fold-change of cells treated with two steric non-targeting control ASOs (CO-3772 and CO-1589 (sNTC1)).
The effect of ASO length on GRN gene expression modulation was also investigated. SK-N-AS cells were transfected with increasing concentrations of the longer ASOs and GRN mRNA quantified by qPCR. Increasing the length of CO-3423 increased the potency of the ASO, as shown in Table 4. mRNA was normalized to the average fold change of cells treated with two steric non-targeting control ASOs (CO-3772 and CO-1589 (sNTC1)).
To determine whether variations in the PO/PS internucleotide bond linkages impacted the ability of CO-3423 and CO-3431 to modulate gene expression, several modified ASOs based on these parent ASOs were prepared. SK-N-AS cells were transfected with increasing concentrations of the mixed PO/PS bond ASOs described in Tables 5 and 6, and GRN mRNA quantified by qPCR.
GRN mRNA fold-change after treatment with mixed PO/PS bond versions of CO-3423 is shown in Table 5. mRNA was normalized to the average fold change of cells treated with steric nontargeting controls (CO-3772, CO-1589 (sNTC1), and CO-1929 (sNTC3)).
GRN mRNA fold-change after treatment with mixed PO/PS bond versions of CO-3431 is shown in Table 6. mRNA was normalized as described above.
To further assess the effect of additional modifications on the ability of CO-3423 parent ASO to modulate GRN gene expression, additional LNA tiling and PO bond modifications were incorporated to CO-3423. SK-N-AS cells were transfected with increasing concentrations of the modified ASOs and GRN mRNA quantified by qPCR. CO-3423 was used for comparison. GRN mRNA was normalized to the average fold-change of cells treated with a steric non-targeting control ASO, CO-1589 (sNTC1).
To further assess the effect of modifications on the ability of CO-3463 parent ASO to modulate GRN gene expression, ASOs based on this ASOS incorporating additional LNA modifications were prepared and compared to […]. SK-N-AS cells were transfected with increasing concentrations of the ASOs and GRN mRNA quantified by qPCR. GRN mRNA was normalized to the average fold-change of cells treated with a steric non-targeting control ASO, CO-1589 (sNTC1).
68 additional ASOs were designed to target intergenic enhancers (eRNA). 48 hours post-transfection, the cells were collected for GRN mRNA analysis using qPCR. CO-1589, a steric nontargeting control ASO, was used as a control. GRN mRNA was normalized to cells treated with CO-1589.
The best hits from these ASOs were tested in a dose escalation study. Cells were incubated for 48 hours. Subsequently, the cells were collected for mRNA quantification via RT-qPCR. […]

[1] = Table 11, 48 hours, normalized to CO-1589
[2] = Table 12, normalized to CO-1589
[3] = Table 9, 48 hours post-transfection, normalized to CO-1589
[4] = Table 4, normalized to CO-3772 and CO-1589 (sNTC1)
[5] = Table 13, normalized to CO-1589
[6] = Table 10, 48 hours, normalized to CO-1589

Question: With “CO-6441: ASO designed to target an intragenic enhancer RNA (eRNA) (eG*eG*e[5mC]*eT*eG*eA*eT*eG*e[5mC]*eA*eG*eG*eG*eT*eT*e[5mC]*eA*eT*eG*e[5mC])” as the substance, how does the “hGRN mRNA FC” value [1] read?
Answer: 1.4 FC

Question: Which “hGRN mRNA FC” value [1] does the source give for “CO-6435: ASO designed to target an intragenic enhancer RNA (eRNA) (eA*eG*eG*e[5mC]*e[5mC]*eA*e[5mC]*e[5mC]*eT*eG*e[5mC]*eT*eG*e[5mC]*eT*e[5mC]*e[5mC]*eG*eA*eT)” here?
Answer: 1.2 FC

Question: How did the “30 nM FC (GRN mRNA)” value [2] turn out when “CO-6384: ASO based on parent ASO CO-3462 (antisense eG*eT*eA*eG*eG*eA*eG*eA*eA*eT*e[5mC]*eG*e[5mC]*eT*eT*eT*eG*eG*eG*eA)” was run?
Answer: 1.0 FC

Question: What about the “60 nM FC (GRN mRNA)” value [2] of the same substance?
Answer: 1.0 FC

Question: What about the “120 nM FC (GRN mRNA)” value [2] of the same substance?
Answer: 1.5 FC

Question: Which “hGRN mRNA FC” value [1] does the source give for “CO-6440: ASO designed to target an intragenic enhancer RNA (eRNA) (eG*eT*eT*e[5mC]*eA*eT*eG*e[5mC]*eT*eA*e[5mC]*e[5mC]*e[5mC]*e[5mC]*e[5mC]*eT*eA*eG*eT*eG)” here?
Answer: 1.0 FC

Question: How did the “hGRN mRNA FC” value [3] turn out when “CO-4603: ASO designed to target intergenic enhancers (eRNA) (antisense e[5mC]*e[5mC]*eA*e[5mC]*eT*eT*e[5mC]*eG*e[5mC]*eG*eT*eT*eT*eA*eG*eA*eA*e[5mC]*eT*eT)” was run?
Answer: 1.3 FC

Question: With “CO-4644: ASO designed to target intergenic enhancers (eRNA) (antisense eG*eT*eT*eA*eA*eG*eT*eA*e[5mC]*eG*eT*eG*eA*e[5mC]*e[5mC]*e[5mC]*eT*eA*eT*e[5mC])” as the substance, how does the “hGRN mRNA FC” value [3] read?
Answer: 1.1 FC

Question: With “CO-4624: ASO designed to target intergenic enhancers (eRNA) (antisense eG*eT*e[5mC]*eA*eG*eA*e[5mC]*eT*eG*eT*e[5mC]*e[5mC]*eT*eA*e[5mC]*eA*e[5mC]*e[5mC]*eT*eT)” as the substance, how does the “hGRN mRNA FC” value [3] read?
Answer: 1.3 FC

Question: With “CO-4646: ASO designed to target intergenic enhancers (eRNA) (antisense eG*eT*eG*eT*eG*eA*eA*eA*eT*eG*eA*eT*eG*eG*eT*eA*e[5mC]*e[5mC]*eA*eG)” as the substance, how does the “hGRN mRNA FC” value [3] read?
Answer: 1.3 FC

Question: How did the “hGRN mRNA FC” value [3] turn out when “CO-4615: ASO designed to target intergenic enhancers (eRNA) (antisense e[5mC]*eA*eT*eT*eT*e[5mC]*eA*e[5mC]*eA*e[5mC]*eT*eT*eG*eT*eA*eT*eG*eA*eG*e[5mC])” was run?
Answer: 1.0 FC

Question: How did the “hGRN mRNA FC” value [3] turn out when “CO-4592: ASO designed to target intergenic enhancers (eRNA) (antisense eG*eG*eT*e[5mC]*eA*e[5mC]*eA*eG*eA*eT*eT*eG*e[5mC]*eA*e[5mC]*eT*e[5mC]*eT*e[5mC]*e[5mC])” was run?
Answer: 1.1 FC

Question: How did the “30 nM FC (GRN mRNA)” value [2] turn out when “CO-6383: ASO based on parent ASO CO-3462 (antisense eT*eA*eG*eG*eA*dG*dA*dA*dT*d[5mC]*dG*d[5mC]*dT*dT*dT*eG*eG*eG*eA*eG)” was run?
Answer: 1.2 FC

Question: And the “60 nM FC (GRN mRNA)” value [2]?
Answer: 1.0 FC

Question: And the “120 nM FC (GRN mRNA)” value [2]?
Answer: 1.2 FC

Question: What does the source list for “CO-6401: ASO based on parent ASO CO-3462 (antisense eG*eT*eA*eG*eG*dA*dG*dA*eA*dT*d[5mC]*dG*d[5mC]*eT*dT*dT*dG*eG*eG*eA*eG*e[5mC])”?
Answer: 30 nM FC (GRN mRNA) [2]: 1.2 FC; 60 nM FC (GRN mRNA) [2]: 1.5 FC; 120 nM FC (GRN mRNA) [2]: 1.7 FC

Question: For “CO-6404: ASO based on parent ASO CO-3462 (antisense eG*eG*eT*eA*eG*eG*eA*eG*eA*eA*eT*e[5mC]*eG*e[5mC]*eT*eT*eT*eG*eG*eG*eA*eG*e[5mC]*eA)”, which “30 nM FC (GRN mRNA)” value [2] is on record?
Answer: 1.3 FC

Question: What about the “60 nM FC (GRN mRNA)” value [2] of the same substance?
Answer: 1.3 FC

Question: What about the “120 nM FC (GRN mRNA)” value [2] of the same substance?
Answer: 1.5 FC

Question: How did the “hGRN mRNA FC” value [3] turn out when “CO-4604: ASO designed to target intergenic enhancers (eRNA) (antisense eT*e[5mC]*eT*e[5mC]*e[5mC]*eG*eA*eT*e[5mC]*e[5mC]*e[5mC]*eG*e[5mC]*eT*eT*eG*eT*e[5mC]*eA*eG)” was run?
Answer: 1.2 FC

Question: With “CO-4594: ASO designed to target intergenic enhancers (eRNA) (antisense eA*eA*eA*eG*eG*eA*e[5mC]*eG*e[5mC]*e[5mC]*eT*eT*e[5mC]*eT*e[5mC]*eT*e[5mC]*eG*eG*eG)” as the substance, how does the “hGRN mRNA FC” value [3] read?
Answer: 1.3 FC

Question: With “CO-4645: ASO designed to target intergenic enhancers (eRNA) (antisense eA*e[5mC]*eA*eG*e[5mC]*eA*eG*eA*eA*e[5mC]*eA*eT*e[5mC]*e[5mC]*e[5mC]*eG*eT*eG*eA*eA)” as the substance, how does the “hGRN mRNA FC” value [3] read?
Answer: 1.4 FC

Question: “CO-4596: ASO designed to target intergenic enhancers (eRNA) (antisense e[5mC]*eA*eA*e[5mC]*eT*eA*eT*e[5mC]*eA*eG*eT*e[5mC]*eA*eA*eG*eG*eT*e[5mC]*eG*eG)” was tested. Which “hGRN mRNA FC” value [3] did it give?
Answer: 1.0 FC

Question: How did the “hGRN mRNA FC” value [3] turn out when “CO-4612: ASO designed to target intergenic enhancers (eRNA) (antisense eA*eT*eG*eG*e[5mC]*eT*eA*eA*eA*eA*e[5mC]*eT*eA*e[5mC]*e[5mC]*eT*eT*e[5mC]*e[5mC]*eA)” was run?
Answer: 1.0 FC

Question: With “CO-4363: longer ASO based on CO-3423 (antisense eG*eG*eA*e[5mC]*eT*eT*eG*eG*eG*eA*eG*eT*eG*eG*eT*eG*eA*e[5mC]*eT*eG*eA)” as the substance, how does the “30 nM FC (GRN mRNA)” value [4] read?
Answer: 1.3 FC

Question: And the “60 nM FC (GRN mRNA)” value [4]?
Answer: 2.2 FC

Question: What about the “120 nM FC (GRN mRNA)” value [4] of the same substance?
Answer: 1.8 FC

Question: And the “30 nM FC (GRN mRNA)” value [5]?
Answer: 1.6 FC

Question: And the “60 nM FC (GRN mRNA)” value [5]?
Answer: 1.7 FC

Question: What about the “120 nM FC (GRN mRNA)” value [5] of the same substance?
Answer: 1.7 FC

Question: How did the “hit identification (GRN mRNA dose escalation)” value (3.75 nM to 120 nM, 48 hours) turn out when “CO-4637: ASO designed to target intergenic enhancers (eRNA) (antisense eT*eA*eA*eG*eG*eT*eG*eT*eA*eG*eG*eA*e[5mC]*eA*eG*eT*e[5mC]*eT*eG*eA)” was run?
Answer: initial hits

Question: And the “hGRN mRNA FC” value [3]?
Answer: 0.9 FC

Question: What about the “3.75 nM FC (GRN mRNA)” value (Table 10, 3.75 nM, 48 hours, normalized to CO-1589) of the same substance?
Answer: 1.1 FC

Question: What about the “7.5 nM FC (GRN mRNA)” value (Table 10, 7.5 nM, 48 hours, normalized to CO-1589) of the same substance?
Answer: 1.1 FC

Question: What about the “15 nM FC (GRN mRNA)” value (Table 10, 15 nM, 48 hours, normalized to CO-1589) of the same substance?
Answer: 1.2 FC

Question: And the “30 nM FC (GRN mRNA)” value [6]?
Answer: 1.1 FC

Question: And the “60 nM FC (GRN mRNA)” value [6]?
Answer: 1.2 FC

Question: What about the “120 nM FC (GRN mRNA)” value [6] of the same substance?
Answer: 1.3 FC

Question: For “CO-4605: ASO designed to target intergenic enhancers (eRNA) (antisense e[5mC]*eG*eG*eG*eA*eG*eA*e[5mC]*eA*eG*eG*eA*eA*eG*eG*e[5mC]*eT*eT*eA*eA)”, which “hGRN mRNA FC” value [3] is on record?
Answer: 1.2 FC

Question: With “CO-6454: ASO designed to target an intragenic enhancer RNA (eRNA) (e[5mC]*e[5mC]*eA*eA*eG*eT*eG*eT*eA*eG*eG*eA*eA*eA*eA*eA*eG*eT*eT*eT)” as the substance, how does the “hGRN mRNA FC” value [1] read?
Answer: 1.0 FC

— patent publication US20250243488A1, “METHODS OF MODULATING PROGRANULIN EXPRESSION USING ANTISENSE OLIGONUCLEOTIDES TARGETING REGULATORY RNAS” (Camp4 Therapeutics Corporation, priority 2022, published 2025)
